ChEMBL document CHEMBL1126870, “The crystal structure, absolute configuration, and phosphodiesterase inhibitory activity of (+)-1-(4-bromobenzyl)-4-(3-(cyclopentyloxy)- 4-methoxyphenyl)-pyrrolidin-2-one” (J Med Chem, 1993)

Molecular target: Phosphodiesterase 4 (Homo sapiens, UniProt P27815+Q08499+Q07343+Q08493)
Assay: Inhibition of partially-purified PDE 4 from human monocytes

IC50 | SMILES
170 nM | COc1ccc([C@@H]2CC(=O)N(Cc3ccc(Br)cc3)C2)cc1OC1CCCC1
740 nM | COc1ccc([C@H]2CC(=O)N(Cc3ccc(Br)cc3)C2)cc1OC1CCCC1
